Columns and labels:
[1] = biological target: NAMPT (Homo sapiens, UniProt P43490); assay: TR-FRET Binding Assay of NAMPT with PRPP; conditions: with 200 μM PRPP and 2.5 mM ATP; 2 nM NAMPT, 2 nM probe, 16 hours equilibration
Procedure, shortened: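 NAMPT 2 nM + probe 2 nM + Tb-anti-His Ab 1 nM; PRPP 200 μM, ATP 2.5 mM, DMSO 2%; 16 h equilibration before TR-FRET read.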

[2] = tested on: PC3 cells; assay: NAMPT Cell Proliferation Assay; format: cell-based; conditions: Homo sapiens, PC-3, 120 h, 5 days incubation, cell viability by Cell Titer Glo
Procedure, shortened: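 PC3 cells were plated at 500 cells/well in RPMI with 10% heat-inactivated FBS, left to attach overnight, then given compounds in 10-fold dilutions from 10 μM to 1×10^−5 μM. After 5 days at 37° C and 5% CO2, viability was read by luminescence and IC50s came from sigmoidal fits of percent inhibition.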

[3] = biological target: NAMPT (human, recombinant, C-terminally His-tagged) (Homo sapiens, UniProt P43490); assay: Time-Resolved Fluorescence Resonance Energy Transfer (TR-FRET) Binding Assay of NAMPT; conditions: without substrates; 6.8 nM NAMPT, 200 nM probe, 3 hours equilibration
Chain of NAMPT (human, recombinant, C-terminally His-tagged) (P43490 whole entry): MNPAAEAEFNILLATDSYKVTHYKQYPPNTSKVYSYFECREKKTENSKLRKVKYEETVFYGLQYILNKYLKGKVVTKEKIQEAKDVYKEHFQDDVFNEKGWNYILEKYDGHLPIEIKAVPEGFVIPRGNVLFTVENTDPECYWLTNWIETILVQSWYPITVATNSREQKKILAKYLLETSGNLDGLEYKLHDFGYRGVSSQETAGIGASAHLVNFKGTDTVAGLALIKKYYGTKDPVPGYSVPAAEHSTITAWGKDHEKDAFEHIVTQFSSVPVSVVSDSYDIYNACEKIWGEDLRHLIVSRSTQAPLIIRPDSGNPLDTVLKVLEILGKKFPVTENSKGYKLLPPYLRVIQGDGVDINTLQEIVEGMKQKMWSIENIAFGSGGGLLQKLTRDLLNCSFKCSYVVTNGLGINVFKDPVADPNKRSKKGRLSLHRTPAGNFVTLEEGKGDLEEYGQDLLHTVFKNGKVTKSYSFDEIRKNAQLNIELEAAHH
Procedure, shortened: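 Read-out is the time-resolved FRET ratio Em520/Em495 (excitation 337 nm) between a terbium anti-His antibody (1 nM) on the enzyme and an Oregon Green 488-labelled nicotinamide-competitive inhibitor probe (200 nM). Enzyme was 6.8 nM, DMSO 2%, pH 7.5 HEPES buffer; 3 h room-temperature equilibration preceded reading.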

Chain of NAMPT (P43490 whole entry): as above

IC50 [1] | IC50 [2] | IC50 [3] | SMILES
0.000471 µM | 0.0059 µM | 0.0213 µM | CC(C)(C(=O)N1CCC(c2ccc(C(=O)NCc3ccn4ccnc4c3)cc2)C1)c1ccccc1 (stereo not drawn) [Example 732, N-(imidazo[1,2-a]pyridin-7-ylmethyl)-4-[1-(2-methyl-2-phenylpropanoyl)pyrrolidin-3-yl]benzamide]
0.000712 µM | 0.0202 µM | 0.119 µM | O=C(NCc1ccn2ccnc2c1)c1ccc(C2CCN(C(=O)C(F)(F)c3ccccc3)C2)cc1 (stereo not drawn) [Example 733, 4-{1-[difluoro(phenyl)acetyl]pyrrolidin-3-yl}-N-(imidazo[1,2-a]pyridin-7-ylmethyl)benzamide]
0.000605 µM | 0.000553 µM | 0.0142 µM | CC1(Cn2cc(-c3ccc(C(=O)NCc4ccn5ccnc5c4)o3)cn2)CCOCC1 [Example 734, N-(imidazo[1,2-a]pyridin-7-ylmethyl)-5-{1-[(4-methyltetrahydro-2H-pyran-4-yl)methyl]-1H-pyrazol-4-yl}furan-2-carboxamide]
0.000864 µM | 0.688 µM | 0.646 µM | O=C(NCc1ccn2ccnc2c1)c1ccc(C2CCN(C(=O)c3ccccc3F)CC2)o1 [Example 735, 5-[1-(2-fluorobenzoyl)piperidin-4-yl]-N-(imidazo[1,2-a]pyridin-7-ylmethyl)furan-2-carboxamide]
0.00073 µM | 8.36 µM | 3.09 µM | CC(C)C(=O)N1CCC(c2ccc(C(=O)NCc3ccn4ccnc4c3)o2)CC1 [Example 736, N-(imidazo[1,2-a]pyridin-7-ylmethyl)-5-[1-(2-methylpropanoyl)piperidin-4-yl]furan-2-carboxamide]
0.000612 µM | 0.00405 µM | 0.0704 µM | N#Cc1ccccc1C(=O)N1CCC(c2ccc(C(=O)NCc3ccn4ccnc4c3)cc2)CC1 [Example 737, 4-[1-(2-cyanobenzoyl)piperidin-4-yl]-N-(imidazo[1,2-a]pyridin-7-ylmethyl)benzamide]
0.000705 µM | 0.0859 µM | 0.364 µM | O=C(NCc1ccn2ccnc2c1)c1ccc(-c2cnn(CC(F)(F)F)c2)o1 [Example 738, N-(imidazo[1,2-a]pyridin-7-ylmethyl)-5-[1-(2,2,2-trifluoroethyl)-1H-pyrazol-4-yl]furan-2-carboxamide]
0.000672 µM | 0.0676 µM | 0.0377 µM | O=C(Cc1ccn2ccnc2c1)Nc1ccc(NC(=O)CC2CCCC2)cc1 [Example 739, 2-cyclopentyl-N-{4-[(imidazo[1,2-a]pyridin-7-ylacetyl)amino]phenyl}acetamide]
0.000403 µM | 0.00813 µM | 0.0701 µM | CC(C)Cn1cc(-c2ccc(C(=O)NCc3ccn4ccnc4c3)o2)cn1 [Example 740, N-(imidazo[1,2-a]pyridin-7-ylmethyl)-5-[1-(2-methylpropyl)-1H-pyrazol-4-yl]furan-2-carboxamide]
0.000647 µM | 0.0749 µM | 0.068 µM | O=C(NCc1ccn2ccnc2c1)c1ccc(-c2cnn(Cc3ccccc3)c2)o1 [Example 741, 5-(1-benzyl-1H-pyrazol-4-yl)-N-(imidazo[1,2-a]pyridin-7-ylmethyl)furan-2-carboxamide]
0.000526 µM | 0.0105 µM | 0.241 µM | O=C(NCc1ccn2ccnc2c1)c1ccc(-c2cnn(C[C@@H]3CCCO3)c2)o1 [Example 742, N-(imidazo[1,2-a]pyridin-7-ylmethyl)-5-{1-[(2S)-tetrahydrofuran-2-ylmethyl]-1H-pyrazol-4-yl}furan-2-carboxamide]
0.000691 µM | 0.00681 µM | 0.0633 µM | O=C(NCc1ccn2ccnc2c1)c1ccc(-c2cnn(C[C@H]3CCCO3)c2)o1 [Example 743, N-(imidazo[1,2-a]pyridin-7-ylmethyl)-5-{1-[(2R)-tetrahydrofuran-2-ylmethyl]-1H-pyrazol-4-yl}furan-2-carboxamide]
0.000806 µM | 0.505 µM | 1.08 µM | CC(C)C(=O)N1CC=C(c2ccc(C(=O)NCc3ccn4ccnc4c3)o2)CC1 [Example 744, N-(imidazo[1,2-a]pyridin-7-ylmethyl)-5-[1-(2-methylpropanoyl)-1,2,3,6-tetrahydropyridin-4-yl]furan-2-carboxamide]
0.000783 µM | 0.632 µM | 0.994 µM | CC(C)CC(=O)N1CC=C(c2ccc(C(=O)NCc3ccn4ccnc4c3)o2)CC1 [Example 745, N-(imidazo[1,2-a]pyridin-7-ylmethyl)-5-[1-(3-methylbutanoyl)-1,2,3,6-tetrahydropyridin-4-yl]furan-2-carboxamide]
0.000839 µM | 0.116 µM | 0.795 µM | O=C(NCc1ccn2ccnc2c1)c1ccc(C2=CCN(C(=O)c3ccccc3)CC2)o1 [Example 746, 5-(1-benzoyl-1,2,3,6-tetrahydropyridin-4-yl)-N-(imidazo[1,2-a]pyridin-7-ylmethyl)furan-2-carboxamide]
0.00175 µM | 0.942 µM | 0.435 µM | CC(C)Cc1ccc(-c2ccc(C(=O)NCc3ccn4ccnc4c3)o2)cc1 [Example 747, N-(imidazo[1,2-a]pyridin-7-ylmethyl)-5-[4-(2-methylpropyl)phenyl]furan-2-carboxamide]
0.000648 µM | 0.0507 µM | 0.558 µM | CC[C@H](C)C(=O)N1CC=C(c2ccc(C(=O)NCc3ccn4ccnc4c3)o2)CC1 [Example 748, N-(imidazo[1,2-a]pyridin-7-ylmethyl)-5-{1-[(2S)-2-methylbutanoyl]-1,2,3,6-tetrahydropyridin-4-yl}furan-2-carboxamide]
0.00079 µM | 0.077 µM | 0.392 µM | CC(C)(C)CC(=O)N1CC=C(c2ccc(C(=O)NCc3ccn4ccnc4c3)o2)CC1 [Example 749, 5-[1-(3,3-dimethylbutanoyl)-1,2,3,6-tetrahydropyridin-4-yl]-N-(imidazo[1,2-a]pyridin-7-ylmethyl)furan-2-carboxamide]
0.00154 µM | 0.794 µM | 1.53 µM | O=C(NCc1ccn2ccnc2c1)c1ccc(C2=CCN(C(=O)CC3CC3)CC2)o1 [Example 750, 5-[1-(cyclopropylacetyl)-1,2,3,6-tetrahydropyridin-4-yl]-N-(imidazo[1,2-a]pyridin-7-ylmethyl)furan-2-carboxamide]
0.001 µM | 0.755 µM | 1.24 µM | CC(C)CS(=O)(=O)N1CCC(c2ncc(C(=O)NCc3ccn4ccnc4c3)s2)C1 (stereo not drawn) [Example 751, N-(imidazo[1,2-a]pyridin-7-ylmethyl)-2-{1-[(2-methylpropyl)sulfonyl]pyrrolidin-3-yl}-1,3-thiazole-5-carboxamide]
0.00077 µM | 6.66 µM | 5.19 µM | O=C(NCc1ccn2ccnc2c1)c1cnc(C2CCN(S(=O)(=O)c3ccccc3)C2)s1 (stereo not drawn) [Example 752, N-(imidazo[1,2-a]pyridin-7-ylmethyl)-2-[1-(phenylsulfonyl)pyrrolidin-3-yl]-1,3-thiazole-5-carboxamide]
0.000783 µM | 0.0746 µM | 0.403 µM | CC(C)CS(=O)(=O)N1CC=C(c2ccc(C(=O)NCc3ccn4ccnc4c3)o2)CC1 [Example 753, N-(imidazo[1,2-a]pyridin-7-ylmethyl)-5-{1-[(2-methylpropyl)sulfonyl]-1,2,3,6-tetrahydropyridin-4-yl}furan-2-carboxamide]
0.00051 µM | 0.00125 µM | 0.00492 µM | CC(C)Cn1cc(-c2ccc(C(=O)NCc3cn4ccnc4cn3)s2)cn1 [Example 754, N-(imidazo[1,2-a]pyrazin-6-ylmethyl)-5-[1-(2-methylpropyl)-1H-pyrazol-4-yl]thiophene-2-carboxamide]
0.00057 µM | 0.00249 µM | 0.013 µM | CC1(Cn2cc(-c3ccc(C(=O)NCc4ccn5ccnc5c4)s3)cn2)CCN(C(=O)OC(C)(C)C)CC1 [Example 755, tert-butyl 4-[(4-{5-[(imidazo[1,2-a]pyridin-7-ylmethyl)carbamoyl]thiophen-2-yl]-1H-pyrazol-1-yl)methyl}-4-methylpiperidine-1-carboxylate]
0.000609 µM | 0.0189 µM | 0.123 µM | O=C(NCc1ccn2ccnc2c1)c1ccc(C2CCN(C(=O)CC3CC3)C2)s1 (stereo not drawn) [Example 756, 5-[1-(cyclopropylacetyl)pyrrolidin-3-yl]-N-(imidazo[1,2-a]pyridin-7-ylmethyl)thiophene-2-carboxamide]
0.000705 µM | 0.000435 µM | 0.0156 µM | O=C(NCc1ccn2ccnc2c1)c1ccc(C2CCN(C(=O)c3ccccc3Cl)C2)s1 (stereo not drawn) [Example 757, 5-[1-(2-chlorobenzoyl)pyrrolidin-3-yl]-N-(imidazo[1,2-a]pyridin-7-ylmethyl)thiophene-2-carboxamide]
0.00061 µM | 0.0232 µM | 0.132 µM | O=C(NCc1ccn2ccnc2c1)c1ccc(C2CCN(C(=O)Cc3ccc(F)cc3)C2)s1 (stereo not drawn) [Example 758, 5-{1-[(4-fluorophenyl)acetyl]pyrrolidin-3-yl}-N-(imidazo[1,2-a]pyridin-7-ylmethyl)thiophene-2-carboxamide]

From US9187472B2 (AbbVie Inc., priority 2012, dated 2015)
